Test results from the supplement of paper PMC4314810.
± gives the standard deviation of the averaged measurements.

What follows are sequences tested on MCF7 (assay: HRG-induced Akt activation (dPAkt = log2 pAkt/Akt HRG-stimulated minus log2 pAkt/Akt basal) (log2 ratio difference); higher = stronger HRG-induced Akt(T308) phosphorylation). Conditions: miRNA mimic concentration 10 nM; time after transfection 72 h; heregulin 10 ng/ml; stimulation time 1 h.
In short: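 MCF7 cells ([…], 96-well plates) carrying one of 879 miRNA mimics, transfected at 10 nM final with Lipofectamine RNAiMax in two biological replicates, were stimulated after 72 h with 10 ng/ml heregulin-beta1 for 1 h or left unstimulated. Phospho-Akt(T308) and total Akt in cells fixed with 4% PFA were read by In-Cell Western on an Odyssey and corrected for column-wise fixation decay to give log2(pAkt/Akt). Heregulin-induced Akt activation is the replicate mean of stimulated minus unstimulated ratios.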
In the case of AAAAGUAAUUGCGAGUUUUACC, the “HRG-induced Akt activation (log2)” value is reported as 1.34 ± 0.091. In the case of CAAUUUAGUGUGUGUGAUAUUU, the “HRG-induced Akt activation (log2)” value is reported as 2 ± 0.13. GUCCAGUUUUCCCAGGAAUCCCU was tested, and the “HRG-induced Akt activation (log2)” value was 1.7 ± 0.2. In the case of AGUUUUGCAUAGUUGCACUACA, the “HRG-induced Akt activation (log2)” value is reported as 1.37 ± 0.032. For ACAGUAGAGGGAGGAAUCGCAG, the “HRG-induced Akt activation (log2)” value was 1.42 ± 0.22. UGUGACUGGUUGACCAGAGGGG was tested, and the “HRG-induced Akt activation (log2)” value was 1.6 ± 0.2. In the case of AAAACUGUAAUUACUUUUGUAC, the “HRG-induced Akt activation (log2)” value is reported as 1.26 ± 0.31. For UAAGGCACCCUUCUGAGUAGA, the “HRG-induced Akt activation (log2)” value was 1.51 ± 0.1. For CAAGAACCUCAGUUGCUUUUGU, the “HRG-induced Akt activation (log2)” value was 1.15 ± 0.34. GUGUUGAAACAAUCUCUACUG was tested, and the “HRG-induced Akt activation (log2)” value was 1.53 ± 0.25. UGGUGGGCACAGAAUCUGGACU was tested, and the “HRG-induced Akt activation (log2)” value was 1.74 ± 0.12. With CUACAAAGGGAAGCACUUUCUC the “HRG-induced Akt activation (log2)” value was 1.96 ± 0.15. For CGCAUCCCCUAGGGCAUUGGUGU, the “HRG-induced Akt activation (log2)” value was 2.62 ± 0.28. For AUGUAGGGCUAAAAGCCAUGGG, the “HRG-induced Akt activation (log2)” value was 1.01 ± 0.24. AAUGCACCUGGGCAAGGAUUCA was tested, and the “HRG-induced Akt activation (log2)” value was 1.43 ± 0.42. In the case of AUCCGCGCUCUGACUCUCUGCC, the “HRG-induced Akt activation (log2)” value is reported as 1.53 ± 0.14. With AGUAUUCUGUACCAGGGAAGGU the “HRG-induced Akt activation (log2)” value was 1.96 ± 0.043. In the case of AAAGUGCUGCGACAUUUGAGCGU, the “HRG-induced Akt activation (log2)” value is reported as 0.644 ± 0.26. In the case of AGAAGGAAAUUGAAUUCAUUUA, the “HRG-induced Akt activation (log2)” value is reported as 2.39 ± 0.29. With CACGCUCAUGCACACACCCACA the “HRG-induced Akt activation (log2)” value was 1.68 ± 0.14. In the case of CAAAGUUUAAGAUCCUUGAAGU, the “HRG-induced Akt activation (log2)” value is reported as 1.08 ± 0.53. With UGAGUGUGUGUGUGUGAGUGUGU the “HRG-induced Akt activation (log2)” value was 2.295 ± 0.0047. In the case of AUCCCACCUCUGCCACCA, the “HRG-induced Akt activation (log2)” value is reported as 1.2 ± 0.059. CAUCUUCCAGUACAGUGUUGGA was tested, and the “HRG-induced Akt activation (log2)” value was 1.73 ± 0.073. In the case of AGGCACGGUGUCAGCAGGC, the “HRG-induced Akt activation (log2)” value is reported as 1.2 ± 0.26. In the case of AUGUAUAAAUGUAUACACAC, the “HRG-induced Akt activation (log2)” value is reported as 1.42 ± 0.5. GGGCGACAAAGCAAGACUCUUUCUU was tested, and the “HRG-induced Akt activation (log2)” value was 1.56 ± 0.061. In the case of CUGUAUGCCCUCACCGCUCA, the “HRG-induced Akt activation (log2)” value is reported as 2.27 ± 0.32. For GGUUUGGUCCUAGCCUUUCUA, the “HRG-induced Akt activation (log2)” value was 1.47 ± 0.2. For GUGGGGGAGAGGCUGUC, the “HRG-induced Akt activation (log2)” value was 1.33 ± 0.25. In the case of UUGCAUAUGUAGGAUGUCCCAU, the “HRG-induced Akt activation (log2)” value is reported as 1.32 ± 0.079. For UAAUACUGUCUGGUAAAACCGU, the “HRG-induced Akt activation (log2)” value was 1.15 ± 0.17. For ACGGUGCUGGAUGUGGCCUUU, the “HRG-induced Akt activation (log2)” value was 1.92 ± 0.082. In the case of CGUGCCACCCUUUUCCCCAG, the “HRG-induced Akt activation (log2)” value is reported as 1.18 ± 0.34. In the case of UUGGCCACAAUGGGUUAGAAC, the “HRG-induced Akt activation (log2)” value is reported as 1.02 ± 0.1. With ACUGCCCUAAGUGCUCCUUCUGG the “HRG-induced Akt activation (log2)” value was 1.72 ± 0.1. For UAAGUGCUUCCAUGUUUCAGUGG, the “HRG-induced Akt activation (log2)” value was 0.9677 ± 0.0067. For UCACACCUGCCUCGCCCCCC, the “HRG-induced Akt activation (log2)” value was 1.05 ± 0.31. AUAUUACCAUUAGCUCAUCUUU was tested, and the “HRG-induced Akt activation (log2)” value was 1.42 ± 0.089. With CUCGGCGCGGGGCGCGGGCUCC the “HRG-induced Akt activation (log2)” value was 1.37 ± 0.015. AAGGCAGGGCCCCCGCUCCCC was tested, and the “HRG-induced Akt activation (log2)” value was 1.14 ± 0.77. For GAACGGCUUCAUACAGGAGUU, the “HRG-induced Akt activation (log2)” value was 1.67 ± 0.12. With GAAGUGUGCCGUGGUGUGUCU the “HRG-induced Akt activation (log2)” value was 2.03 ± 0.31. In the case of UGCCCUUAAAGGUGAACCCAGU, the “HRG-induced Akt activation (log2)” value is reported as 1.22 ± 0.2. UCUACAAAGGAAAGCGCUUUCU was tested, and the “HRG-induced Akt activation (log2)” value was 1.02 ± 0.55. CAUCUUACCGGACAGUGCUGGA was tested, and the “HRG-induced Akt activation (log2)” value was 1.841 ± 0.015. For UGGCAGUGUCUUAGCUGGUUGU, the “HRG-induced Akt activation (log2)” value was 1.99 ± 0.091. For ACUCAAAACCCUUCAGUGACUU, the “HRG-induced Akt activation (log2)” value was 1.79 ± 0.18. In the case of CUCUAGAGGGAAGCACUUUCUC, the “HRG-induced Akt activation (log2)” value is reported as 1.85 ± 0.4. CUGGUUUCACAUGGUGGCUUAG was tested, and the “HRG-induced Akt activation (log2)” value was 2.33 ± 0.15. For ACCUUCUUGUAUAAGCACUGUGCUAAA, the “HRG-induced Akt activation (log2)” value was 1.54 ± 0.13. In the case of AAUGACACGAUCACUCCCGUUGA, the “HRG-induced Akt activation (log2)” value is reported as 1.48 ± 0.35. For AUGGAGAUAGAUAUAGAAAU, the “HRG-induced Akt activation (log2)” value was 1.51 ± 0.11. For AGUUUUGCAGGUUUGCAUCCAGC, the “HRG-induced Akt activation (log2)” value was 1.36 ± 0.22. In the case of GGGGAGCUGUGGAAGCAGUA, the “HRG-induced Akt activation (log2)” value is reported as 1.73 ± 0.21. GUUGGAGGAUGAAAGUACGGAGUGAU was tested, and the “HRG-induced Akt activation (log2)” value was 0.878 ± 1.2. In the case of CUCCUACAUAUUAGCAUUAACA, the “HRG-induced Akt activation (log2)” value is reported as 1.12 ± 0.31. For UAUGGCUUUUCAUUCCUAUGUGA, the “HRG-induced Akt activation (log2)” value was 1.12 ± 0.29. With CUCUCACCACUGCCCUCCCACAG the “HRG-induced Akt activation (log2)” value was 1.9 ± 0.13.
